Assays:
human TRPC6 = molecular target: T1, human TRPC6 (Homo sapiens, UniProt Q9Y210); assay: Assay A: Determination of TRPC6 inhibition, whole-cell patch clamp assay; assay type: cell-based; details: 30 nM; HEK293 cells expressing human TRPC6; pre-incubated at least 3 h; average inward current densities vs vehicle; activated by 10 μM ethyl 8-fluoro-1H,2H,3H,4H,5H-pyrido[4,3-b]indole-2-carboxylate
T1 construct: expressed in transfected cells; host or cells: HEK293
T1 sequence (Q9Y210 1-931): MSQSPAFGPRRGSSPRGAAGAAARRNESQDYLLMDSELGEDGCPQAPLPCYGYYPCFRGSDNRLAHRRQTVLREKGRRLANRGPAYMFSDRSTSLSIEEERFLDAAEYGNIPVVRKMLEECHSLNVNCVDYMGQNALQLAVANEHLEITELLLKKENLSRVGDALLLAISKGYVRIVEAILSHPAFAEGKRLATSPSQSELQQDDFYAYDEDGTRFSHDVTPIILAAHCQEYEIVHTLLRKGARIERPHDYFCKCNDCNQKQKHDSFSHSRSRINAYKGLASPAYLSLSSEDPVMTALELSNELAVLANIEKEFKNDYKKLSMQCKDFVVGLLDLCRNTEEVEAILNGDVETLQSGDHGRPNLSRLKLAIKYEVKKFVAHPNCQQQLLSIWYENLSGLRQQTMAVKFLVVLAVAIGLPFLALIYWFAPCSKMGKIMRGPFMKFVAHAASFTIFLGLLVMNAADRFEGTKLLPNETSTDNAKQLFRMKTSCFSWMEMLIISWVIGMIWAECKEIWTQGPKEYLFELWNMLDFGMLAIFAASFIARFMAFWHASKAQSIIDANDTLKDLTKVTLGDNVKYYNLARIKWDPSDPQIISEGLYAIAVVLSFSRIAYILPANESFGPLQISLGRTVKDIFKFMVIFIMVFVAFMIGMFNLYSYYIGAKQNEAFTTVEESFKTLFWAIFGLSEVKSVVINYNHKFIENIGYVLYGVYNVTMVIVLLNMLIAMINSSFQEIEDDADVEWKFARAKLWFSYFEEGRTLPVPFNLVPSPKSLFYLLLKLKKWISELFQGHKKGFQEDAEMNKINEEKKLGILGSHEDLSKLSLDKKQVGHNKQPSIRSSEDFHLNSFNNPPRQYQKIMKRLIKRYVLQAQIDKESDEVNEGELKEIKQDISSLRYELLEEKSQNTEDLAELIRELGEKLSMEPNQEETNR
Text: Assay A: Determination of TRPC6 Inhibition
HEK293 cells transfected with a plasmid expressing human TRPC6 are used for a patch clamp assay. Patch clamp experiments permit the detection of currents through TRPC6 channels in cellular systems as mentioned above. For whole-cell patch clamp recordings, a glass capillary electrode filled with electrolyte is brought into contact with a single cell and a high-resistance (gigaohm) seal is established with the cell membrane. The membrane is then ruptured to achieve the whole-cell configuration, permitting control of the intracellular electrical potential and measurement of electrical currents across the cell membrane using an amplifier connected to the electrode. A perfusion system permits control of the extracellular solution, including the addition of inhibitors and activators of TRPC6 channels. The TRPC6 current can be activated by 10 μM ethyl 8-fluoro-1H,2H,3H,4H,5H-pyrido[4,3-b]indole-2-carboxylate (commercially available, MFCD02930345) in the extracellular solution.
For the characterization of TRPC6 inhibitors, TRPC6 expression was induced for 20-48 hours, cells were removed from growth plates, and replated at low density (to attain good single-cell physical separation) in small dishes for measurement. Patch clamp recordings were performed in the whole-cell configuration at a holding potential of −40 mV. Every 1.5 seconds, a 400 ms voltage ramp was applied from −80 to +80 mV, flanked by 50 ms constant segments at −80 and +80 mV, respectively. TRPC6-mediated currents were quantified during those constant segments at −80 mV and +80 mV. The internal (pipette) solution consisted of 140 mM cesium aspartate, 10 mM EGTA, 1.91 mM CaCl2, 2.27 mM MgCl2 and 10 mM HEPES, pH 7.2 with CsOH, 40 nM calculated free Ca^2+. The external (bath) solution consisted of 145 mM NaCl, 4.5 mM KCl, 3 mM MgCl2, 10 mM HEPES, 10 mM glucose, 1 mM EGTA, pH 7.4 with NaOH. TRPC6 expressing cells were pre-incubated with potential inhibitors at either 30 nM or at various concentrations (for concentration-response-curves) or vehicle for at least 3 h and both maximal inward and outward currents were determined after addition of ethyl 8-fluoro-1H,2H,3H,4H,5H-pyrido[4,3-b]indole-2-carboxylate. Percent current inhibition was calculated from the average inward current densities of treated and vehicle cells. Current densities were calculated as absolute current normalized with respect to the individual cell's membrane capacitance as a surrogate parameter for cellular surface area. The number of cells measured for each group was chosen in a way that an average of 50% current inhibition with respect to the vehicle group would yield a statistically significant difference (p<0.05) in 90% of the cases based on the variability in current expression between cells. For the estimation of half-inhibitory concentrations, the Hill equation was fitted to the average % percent inhibition values at a series of concentrations of a specific compound.

PASMC = details: cited from earlier work
TRPC6 = details: lung tissue of IPAH patients; cited from earlier work

Compound | inhibition at 0.03 µM (human TRPC6) | proliferation of PASMC (PASMC) | expression of TRPC6 (TRPC6)
COc1cc(C(=O)N2CC[C@H](c3nnc(N)cc3C)C[C@@H]2C)ccc1Oc1ccc(C(F)(F)F)nc1 [Compound 4, 6-[(2S,4S)-1-(3-Methoxy-4-{[6-(trifluoromethyl)pyridin-3-yl]oxy}benzoyl)-2-methylpiperidin-4-yl]-5-methylpyridazin-3-amine] | 12% | – | –
COc1ccc(Oc2ccc(C(=O)N3CCC(c4nnc(N)cc4C)CC3)cc2OC)cn1 [Compound 8, 6-(1-{3-Methoxy-4-[(6-methoxypyridin-3-yl)oxy]benzoyl}piperidin-4-yl)-5-methylpyridazin-3-amine trifluoroacetic acid] | 37% | – | –
COc1ccc(Oc2cnc(C(=O)N3CCC(c4ccc(N)nn4)CC3)cc2OC)cn1 [Compound 5, 6-(1-{4-Methoxy-5-[(6-methoxypyridin-3-yl)oxy]pyridine-2-carbonyl}piperidin-4-yl)pyridazin-3-amine trifluoracetic acid] | 27% | – | –
COc1ccc(Oc2ccc(C(=O)N3CC[C@H](c4nnc(N)cc4C)C[C@@H]3C)cc2)cn1 [Compound 1, 6-[(2S,4S)-1-{4-[(6-Methoxypyridin-3-yl)oxy]benzoyl}-2-methylpiperidin-4-yl]-5-methylpyridazin-3-amine trifluoroacetic acid] | 81% | – | –
COc1ccc(Oc2cnc(C(=O)N3CCC(c4nnc(N)cc4C)CC3)cc2OC)cn1 [Compound 9, 6-(1-{4-Methoxy-5-[(6-methoxypyridin-3-yl)oxy]pyridine-2-carbonyl}piperidin-4-yl)-5-methylpyridazin-3-amine trifluoracetic acid] | 51% | – | –
COc1ccc(Oc2ccc(C(=O)N3CC[C@@H](c4nnc(N)cc4C)[C@@H](C)C3)cc2OC)cn1 [Compound 6, 6-[(3R,4R)-1-{3-Methoxy-4-[(6-methoxypyridin-3-yl)oxy]benzoyl}-3-methylpiperidin-4-yl]-5-methylpyridazin-3-amine] | 72% | – | –
COc1ccc(Oc2ccc(C(=O)N3CC[C@H](c4nnc(N)cc4C)C[C@@H]3C)cc2OC)cn1 [Compound 2, 6-[(2S,4S)-1-{3-Methoxy-4-[(6-methoxypyridin-3-yl)oxy]benzoyl}-2-methylpiperidin-4-yl]-5-methylpyridazin-3-amine] | 60% | – | –
COc1ccc(Oc2ccc(C(=O)N3CCC(c4nnc(N)cc4C)CC3)cc2)cn1 [Compound 7, 6-(1-{4-[(6-Methoxypyridin-3-yl)oxy]benzoyl}piperidin-4-yl)-5-methylpyridazin-3-amine trifluoroacetic acid] | 61% | – | –
COc1ccccc1Oc1c(NS(=O)(=O)c2ccc(C(C)(C)C)cc2)nc(-c2ncccn2)nc1OCCO [bosentan] | – | decreases proliferation | decreases expression of TRPC6
